Laboratory results as given in patent US12071425B2 (Genentech, Inc., priority 2018, dated 2024).
Counter-ions that a name gives are not always drawn.

Biological target: kinase domain of IRE1 alpha (His-tagged kinase dead construct KR, AA G547-L977, D688N) (Homo sapiens (Human), UniProt O75460, D688N)
Experiment: IRE1α TR-FRET competition binding assay
Details: competition with Kinase Tracer 236, 0.1 μM; one hour at room temperature
In short: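 Compound displacement of an ATP-site fluorescent tracer (0.1 μM final) measured by TR-FRET after 1 h at room temperature. Protein, a His-tagged D688N kinase/RNase construct from Sf9 cells (0.006 μM final), was pre-bound 1 h at 4° C to Eu anti-His antibody (0.002 μM) in pH 7.5 HEPES buffer.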

kinase domain of IRE1 alpha (His-tagged kinase dead construct KR, AA G547-L977, D688N), sequence (O75460 547-977 D688N): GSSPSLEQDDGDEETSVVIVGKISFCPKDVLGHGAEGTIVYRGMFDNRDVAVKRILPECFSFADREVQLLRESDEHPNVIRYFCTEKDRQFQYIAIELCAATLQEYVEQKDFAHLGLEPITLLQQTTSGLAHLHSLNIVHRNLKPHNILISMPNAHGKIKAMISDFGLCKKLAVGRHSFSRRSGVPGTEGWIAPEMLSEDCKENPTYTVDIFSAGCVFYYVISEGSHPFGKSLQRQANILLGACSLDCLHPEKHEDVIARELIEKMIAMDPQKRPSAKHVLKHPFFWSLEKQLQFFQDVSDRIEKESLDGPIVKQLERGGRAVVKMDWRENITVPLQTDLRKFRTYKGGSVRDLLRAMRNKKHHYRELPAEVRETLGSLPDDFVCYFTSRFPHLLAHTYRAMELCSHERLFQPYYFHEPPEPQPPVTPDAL

In the case of `O=S(=O)(Cc1ccc(F)cc1F)Nc1c(F)cc(Oc2ncccc2-c2ccnc(N[C@@H]3CNC[C@H](CF)C3)n2)c(F)c1F` [Compound 320, 1-(2,4-Difluorophenyl)-N-(2,3,6-trifluoro-4-((3-(2-(((3S,5R)-5-(fluoromethyl)piperidin-3-yl)amino)pyrimidin-4-yl)pyridin-2-yl)oxy)phenyl)methanesulfonamide], the IC50 is reported as 35 nM.

`N#Cc1ccc(CS(=O)(=O)Nc2c(F)cc(Oc3ncccc3-c3ccnc(N[C@@H]4CNC[C@H](CF)C4)n3)c(F)c2F)cc1` [Compound 321, 1-(4-Cyanophenyl)-N-(2,3,6-trifluoro-4-((3-(2-(((3S,5R)-5-(fluoromethyl)piperidin-3-yl)amino)pyrimidin-4-yl)pyridin-2-yl)oxy)phenyl)methanesulfonamide] was tested, and the IC50 was 0.65 nM.

Compound `Cc1cc(F)ccc1CS(=O)(=O)Nc1c(F)cc(Oc2ncccc2-c2ccnc(N[C@@H]3CNC[C@@H](F)C3)n2)c(F)c1F` [Compound 322, 1-(4-Fluoro-2-methylphenyl)-N-(2,3,6-trifluoro-4-((3-(2-(((3S,5S)-5-fluoropiperidin-3-yl)amino)pyrimidin-4-yl)pyridin-2-yl)oxy)phenyl)methanesulfonamide] has an IC50 of 0.42 nM.

With `O=S(=O)(Cc1ccccc1F)Nc1c(Cl)cc(Oc2ncccc2-c2ccnc(N[C@@H]3CNC[C@@H](F)C3)n2)c(F)c1F` [Compound 323, N-(6-Chloro-2,3-difluoro-4-((3-(2-(((3S,5S)-5-fluoropiperidin-3-yl)amino)pyrimidin-4-yl)pyridin-2-yl)oxy)phenyl)-1-(2-fluorophenyl)methanesulfonamide] the IC50 was 0.33 nM.

`O=S(=O)(Cc1ccccc1F)Nc1c(F)cc(Oc2ncccc2-c2ccnc(N[C@@H]3CNC[C@@H](F)C3)n2)c(Cl)c1F` [Compound 332, N-(3-Chloro-2,6-difluoro-4-((3-(2-(((3S,5S)-5-fluoropiperidin-3-yl)amino)pyrimidin-4-yl)pyridin-2-yl)oxy)phenyl)-1-(2-fluorophenyl)methanesulfonamide] was tested, and the IC50 was 56 nM.

With `CC(C)(F)C1CNCC(Nc2nccc(-c3cccnc3Oc3cc(F)c(NS(=O)(=O)Cc4ccccc4)c(F)c3F)n2)C1` (stereo not drawn) [Compound 333, 1-Phenyl-N-(2,3,6-trifluoro-4-((3-(2-((5-(2-fluoropropan-2-yl)piperidin-3-yl)amino)pyrimidin-4-yl)pyridin-2-yl)oxy)phenyl)methanesulfonamide hydrochloride] the IC50 was 0.19 nM.

For `O=S(=O)(Cc1ccccc1F)Nc1cc(Cl)c(Oc2ncccc2-c2ccnc(N[C@@H]3CNC[C@@H](F)C3)n2)c(F)c1F` [Compound 340, N-(5-Chloro-2,3-difluoro-4-((3-(2-(((3S,5S)-5-fluoropiperidin-3-yl)amino)pyrimidin-4-yl)pyridin-2-yl)oxy)phenyl)-1-(2-fluorophenyl)methanesulfonamide], the IC50 was 7.5 nM.

Compound `COCCN(C)[C@H]1CC[C@H](Nc2nccc(-c3cccnc3Oc3cc(F)c(NS(=O)(=O)Cc4ccc(F)cc4)c(F)c3F)n2)CC1` [Compound 341, 1-(4-Fluorophenyl)-N-(2,3,6-trifluoro-4-((3-(2-(((1r,4r)-4-((2-methoxyethyl)(methyl)amino)cyclohexyl)amino)pyrimidin-4-yl)pyridin-2-yl)oxy)phenyl)methanesulfonamide hydrochloride] has an IC50 of 0.5 nM.

For `COCCN(C)[C@H]1CC[C@H](Nc2nccc(-c3cccnc3Oc3cc(F)c(NS(=O)(=O)C4CCCCC4)c(F)c3F)n2)CC1` [Compound 350, N-(2,3,6-Trifluoro-4-((3-(2-(((1r,4r)-4-((2-methoxyethyl)(methyl)amino)cyclohexyl)amino)pyrimidin-4-yl)pyridin-2-yl)oxy)phenyl)cyclohexanesulfonamide], the IC50 was 0.42 nM.

With `O=S(=O)(Cc1ccc(F)cc1F)Nc1c(F)cc(Oc2ncccc2-c2ccnc(N[C@@H]3CNC[C@@H](F)C3)n2)c(F)c1F` [Compound 351, 1-(2,4-Difluorophenyl)-N-[2,3,6-trifluoro-4-[[3-[2-[[(3S,5S)-5-fluoro-3-piperidyl]amino]pyrimidin-4-yl]-2-pyridyl]oxy]phenyl]methanesulfonamide] the IC50 was 0.91 nM.

`O=S(=O)(Cc1ccccc1Cl)Nc1c(F)cc(Oc2ncccc2-c2ccnc(N[C@@H]3CNC[C@@H](F)C3)n2)c(F)c1F` [Compound 352, 1-(2-Chlorophenyl)-N-[2,3,6-trifluoro-4-[[3-[2-[[(3S,5S)-5-fluoro-3-piperidyl]amino]pyrimidin-4-yl]-2-pyridyl]oxy]phenyl]methanesulfonamide] was tested, and the IC50 was 0.2 nM.

In the case of `O=S(=O)(Cc1cccc(Cl)c1)Nc1c(F)cc(Oc2ncccc2-c2ccnc(N[C@@H]3CNC[C@@H](F)C3)n2)c(F)c1F` [Compound 353, 1-(3-Chlorophenyl)-N-[2,3,6-trifluoro-4-[[3-[2-[[(3S,5S)-5-fluoro-3-piperidyl]amino]pyrimidin-4-yl]-2-pyridyl]oxy]phenyl]methanesulfonamide], the IC50 is reported as 0.3 nM.

For `O=S(=O)(Cc1ccc(Cl)cc1)Nc1c(F)cc(Oc2ncccc2-c2ccnc(N[C@@H]3CNC[C@@H](F)C3)n2)c(F)c1F` [Compound 354, 1-(4-Chlorophenyl)-N-[2,3,6-trifluoro-4-[[3-[2-[[(3S,5S)-5-fluoro-3-piperidyl]amino]pyrimidin-4-yl]-2-pyridyl]oxy]phenyl]methanesulfonamide], the IC50 was 0.2 nM.

In the case of `O=S(=O)(Cc1ccccc1F)Nc1c(F)cc(Oc2ncccc2-c2ccnc(N[C@@H]3CNC[C@@H](F)C3)n2)c(F)c1F` [Compound 355, 1-(2-Fluorophenyl)-N-[2,3,6-trifluoro-4-[[3-[2-[[(3S,5S)-5-fluoro-3-piperidyl]amino]pyrimidin-4-yl]-2-pyridyl]oxy]phenyl]methanesulfonamide], the IC50 is reported as 0.2 nM.

Compound `O=S(=O)(Cc1ccccn1)Nc1c(F)cc(Oc2ncccc2-c2ccnc(N[C@@H]3CNC[C@@H](F)C3)n2)c(F)c1F` [Compound 356, 1-(2-Pyridyl)-N-[2,3,6-trifluoro-4-[[3-[2-[[(3S,5S)-5-fluoro-3-piperidyl]amino]pyrimidin-4-yl]-2-pyridyl]oxy]phenyl]methanesulfonamide] has an IC50 of 0.2 nM.

`N#Cc1cc(F)ccc1CS(=O)(=O)Nc1c(F)cc(Oc2ncccc2-c2ccnc(N[C@@H]3CNC[C@@H](F)C3)n2)c(F)c1F` [Compound 357, 1-(2-Cyano-4-fluoro-phenyl)-N-[2,3,6-trifluoro-4-[[3-[2-[[(3S,5S)-5-fluoro-3-piperidyl]amino]pyrimidin-4-yl]-2-pyridyl]oxy]phenyl]methanesulfonamide] gave an IC50 of 1 nM.

In the case of `N#Cc1ccccc1CS(=O)(=O)Nc1c(F)cc(Oc2ncccc2-c2ccnc(N[C@@H]3CNC[C@@H](F)C3)n2)c(F)c1F` [Compound 358], the IC50 is reported as 0.3 nM.

With `O=S(=O)(Cc1ccncc1)Nc1c(F)cc(Oc2ncccc2-c2ccnc(N[C@@H]3CNC[C@@H](F)C3)n2)c(F)c1F` [Compound 359] the IC50 was 0.3 nM.

`N#Cc1ccc(CS(=O)(=O)Nc2c(F)cc(Oc3ncccc3-c3ccnc(N[C@@H]4CNC[C@@H](F)C4)n3)c(F)c2F)c(F)c1` [Compound 360] was tested, and the IC50 was 0.8 nM.

Work on `NC(=O)c1ccc(CS(=O)(=O)Nc2c(F)cc(Oc3ncccc3-c3ccnc(N[C@@H]4CNC[C@@H](F)C4)n3)c(F)c2F)c(F)c1` [Compound 361, 3-Fluoro-4-[[2,3,6-trifluoro-4-[[3-[2-[[(3S,5S)-5-fluoro-3-piperidyl]amino]pyrimidin-4-yl]-2-pyridyl]oxy]phenyl]sulfamoylmethyl]benzamide] yielded an IC50 of 0.3 nM.

For `N#Cc1cc(Cl)ccc1CS(=O)(=O)Nc1c(F)cc(Oc2ncccc2-c2ccnc(N[C@@H]3CNC[C@@H](F)C3)n2)c(F)c1F` [Compound 362], the IC50 was 0.2 nM.

For `O=S(=O)(Cc1c(F)cccc1F)Nc1c(F)cc(Oc2ncccc2-c2ccnc(N[C@@H]3CNC[C@@H](F)C3)n2)c(F)c1F` [Compound 363, 1-(2,6-Difluorophenyl)-N-[2,3,6-trifluoro-4-[[3-[2-[[(3S,5S)-5-fluoro-3-piperidyl]amino]pyrimidin-4-yl]-2-pyridyl]oxy]phenyl]methanesulfonamide], the IC50 was 0.2 nM.

`O=S(=O)(Cc1ccc(Cl)cc1F)Nc1c(F)cc(Oc2ncccc2-c2ccnc(N[C@@H]3CNC[C@@H](F)C3)n2)c(F)c1F` [Compound 364, 1-(4-Chloro-2-fluoro-phenyl)-N-[2,3,6-trifluoro-4-[[3-[2-[[(3S,5S)-5-fluoro-3-piperidyl]amino]pyrimidin-4-yl]-2-pyridyl]oxy]phenyl]methanesulfonamide] was tested, and the IC50 was 0.3 nM.

`O=S(=O)(Cc1ccc(F)cc1Cl)Nc1c(F)cc(Oc2ncccc2-c2ccnc(N[C@@H]3CNC[C@@H](F)C3)n2)c(F)c1F` [Compound 365, 1-(2-Chloro-4-fluoro-phenyl)-N-[2,3,6-trifluoro-4-[[3-[2-[[(3S,5S)-5-fluoro-3-piperidyl]amino]pyrimidin-4-yl]-2-pyridyl]oxy]phenyl]methanesulfonamide] gave an IC50 of 0.7 nM.

With `O=S(=O)(Cc1ccc(F)c(Cl)c1)Nc1c(F)cc(Oc2ncccc2-c2ccnc(N[C@@H]3CNC[C@@H](F)C3)n2)c(F)c1F` [Compound 366, 1-(3-Chloro-4-fluoro-phenyl)-N-[2,3,6-trifluoro-4-[[3-[2-[[(3S,5S)-5-fluoro-3-piperidyl]amino]pyrimidin-4-yl]-2-pyridyl]oxy]phenyl]methanesulfonamide] the IC50 was 0.2 nM.

`O=S(=O)(Cc1c(F)cccc1Cl)Nc1c(F)cc(Oc2ncccc2-c2ccnc(N[C@@H]3CNC[C@@H](F)C3)n2)c(F)c1F` [Compound 367, 1-(2-Chloro-6-fluorophenyl)-N-(2,3,6-trifluoro-4-((3-(2-(((3S,5S)-5-fluoropiperidin-3-yl)amino)pyrimidin-4-yl)pyridin-2-yl)oxy)phenyl)methanesulfonamide] was tested, and the IC50 was 0.2 nM.

In the case of `O=S(=O)(Nc1c(F)cc(Oc2ncccc2-c2ccnc(N[C@@H]3CNC[C@@H](F)C3)n2)c(F)c1F)C1CCCCC1` [Compound 368, N-(2,3,6-Trifluoro-4-((3-(2-(((3S,5S)-5-fluoropiperidin-3-yl)amino)pyrimidin-4-yl)pyridin-2-yl)oxy)phenyl)cyclohexanesulfonamide], the IC50 is reported as 0.2 nM.
